Measurements reported in ChEMBL document CHEMBL1132460, “Affinity and selectivity of matrix metalloproteinase inhibitors: a chemometrical study from the perspective of ligands and proteins” (J Med Chem, 1999).

What was measured:
Stromelysin-1 = Stromelysin-1 (Homo sapiens, UniProt P08254); assay: Inhibitory concentration against human matrix metalloprotease-3 (MMP-3)
Neutrophil collagenase = Neutrophil collagenase (Homo sapiens, UniProt P22894); assay: Inhibitory concentration against human matrix metalloprotease-8 (human neutrophil collagenase, MMP-8)
[1] = Affinity ratio of IC50 of MMP-3 to IC50 of MMP-8

Stromelysin-1, sequence (P08254 whole entry): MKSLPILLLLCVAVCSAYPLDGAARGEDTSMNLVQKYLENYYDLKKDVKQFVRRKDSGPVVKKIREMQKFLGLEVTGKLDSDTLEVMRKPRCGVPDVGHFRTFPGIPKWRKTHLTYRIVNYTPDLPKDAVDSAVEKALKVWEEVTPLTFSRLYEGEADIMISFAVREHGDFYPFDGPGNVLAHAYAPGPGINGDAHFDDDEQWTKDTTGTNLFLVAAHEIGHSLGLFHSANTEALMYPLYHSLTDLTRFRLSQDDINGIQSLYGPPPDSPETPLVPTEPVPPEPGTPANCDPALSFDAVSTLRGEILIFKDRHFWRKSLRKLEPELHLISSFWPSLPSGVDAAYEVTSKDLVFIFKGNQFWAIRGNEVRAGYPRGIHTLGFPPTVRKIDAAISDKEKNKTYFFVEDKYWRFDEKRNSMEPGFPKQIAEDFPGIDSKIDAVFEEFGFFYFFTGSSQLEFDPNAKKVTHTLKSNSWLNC
Neutrophil collagenase, sequence (P22894 whole entry): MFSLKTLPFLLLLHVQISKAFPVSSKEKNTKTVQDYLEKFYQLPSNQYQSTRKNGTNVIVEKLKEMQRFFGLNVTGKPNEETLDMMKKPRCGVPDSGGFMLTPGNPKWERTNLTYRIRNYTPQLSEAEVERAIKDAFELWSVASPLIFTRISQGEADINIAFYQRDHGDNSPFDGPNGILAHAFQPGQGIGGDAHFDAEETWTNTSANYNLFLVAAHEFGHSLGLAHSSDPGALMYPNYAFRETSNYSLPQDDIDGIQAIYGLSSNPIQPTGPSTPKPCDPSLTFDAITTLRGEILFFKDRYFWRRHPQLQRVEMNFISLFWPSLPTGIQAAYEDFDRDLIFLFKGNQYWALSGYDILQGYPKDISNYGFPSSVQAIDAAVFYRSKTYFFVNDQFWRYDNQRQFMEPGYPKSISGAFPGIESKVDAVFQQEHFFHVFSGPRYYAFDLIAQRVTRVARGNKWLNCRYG

SMILES	IC50 (Stromelysin-1; read-out: IC50) [nM]	IC50 (Neutrophil collagenase) [nM]	log10(IC50 MMP-3/IC50 MMP-8) [1]	IC50 (Stromelysin-1) [nM l-1]
O=C(NO)C1Cc2ccccc2CN1S(=O)(=O)c1ccc(OCc2ccc(F)cc2)cc1 (stereo not drawn)	20	2	1	–
COc1ccc(S(=O)(=O)N2Cc3cc([N+](=O)[O-])ccc3CC2C(=O)NO)cc1 (stereo not drawn)	–	–	1	–
O=C(NO)C1Cc2ccccc2CN1S(=O)(=O)c1ccc(-c2ccc(Cl)cc2)cc1 (stereo not drawn)	20	3	0.82	–
CSc1nccc(-c2ccc(S(=O)(=O)N3Cc4ccccc4CC3C(=O)NO)s2)n1 (stereo not drawn)	2000	20	2	–
O=C(O)C1Cc2ccccc2CN1S(=O)(=O)CCc1ccc(-c2ccccc2)cc1 (stereo not drawn)	50	20	–	–
CSc1nccc(-c2ccc(S(=O)(=O)N3Cc4ccccc4CC3C(=O)O)s2)n1 (stereo not drawn)	–	1000	–	10000
CNC(=O)c1ccc(Oc2ccc(S(=O)(=O)N3Cc4ccccc4CC3C(=O)O)cc2)cc1 (stereo not drawn)	300	40	–	–
COc1ccc(S(=O)(=O)N2Cc3cc(NC(=O)[C@H](C)N)ccc3CC2C(=O)NO)cc1 (stereo partly drawn)	30	–	–	–
COc1ccc(S(=O)(=O)N2Cc3[nH]cnc3C[C@@H]2C(=O)NO)cc1	–	–	0.7	–
O=C(O)C1Cc2ccccc2CN1S(=O)(=O)c1ccc(Oc2ccc(Cl)cc2)cc1 (stereo not drawn)	500	20	–	–
O=C(c1ccccc1)c1ccc(S(=O)(=O)N2Cc3ccccc3CC2C(=O)NO)cc1 (stereo not drawn)	30	3	1	–
O=C(O)C1Cc2ccccc2CN1S(=O)(=O)c1ccc(-c2ccc(C(F)(F)F)cc2)cc1 (stereo not drawn)	300	10	–	–
CN(C)c1cccc2c(S(=O)(=O)N3Cc4ccccc4CC3C(=O)NO)cccc12 (stereo not drawn)	400	200	0.3	–
O=C(O)C1Cc2ccccc2CN1S(=O)(=O)c1ccc(-c2ccccn2)s1 (stereo not drawn)	2000	90	–	–
COc1ccc(S(=O)(=O)N2Cc3cc(O)ccc3CC2C(=O)NO)cc1 (stereo not drawn)	10	1	1	–
O=C(O)C1Cc2ccccc2CN1S(=O)(=O)c1ccc(-c2nc3ccccc3o2)cc1 (stereo not drawn)	800	80	–	–
O=C(O)C1Cc2ccccc2CN1S(=O)(=O)c1ccc(-n2nccn2)cc1 (stereo not drawn)	600	90	–	–

SMILES	IC50 (Stromelysin-1; read-out: IC50) [nM]	IC50 (Neutrophil collagenase) [nM]	log10(IC50 MMP-3/IC50 MMP-8) [1]	IC50 (Stromelysin-1) [nM l-1]
CN(C)c1ccc(Oc2ccc(S(=O)(=O)N3Cc4ccccc4CC3C(=O)NO)cc2)cc1 (stereo not drawn)	30	2	1.18	–
O=C(NO)C1Cc2ccccc2CN1S(=O)(=O)c1ccc(-c2ccccc2)cc1 (stereo not drawn)	–	2	1	–
O=C(NCc1csc(S(=O)(=O)N2Cc3ccccc3CC2C(=O)NO)c1)c1ccccc1 (stereo not drawn)	6000	800	0.88	–
CCCCCCCCCCCCCCCCS(=O)(=O)N1Cc2ccccc2CC1C(=O)NO (stereo not drawn)	–	3000	0.52	10000
O=C(O)C1Cc2ccccc2CN1S(=O)(=O)c1ccc(/C=C/c2ccccc2)cc1 (stereo not drawn)	700	60	–	–
COc1ccc(S(=O)(=O)N2Cc3ccccc3C[C@@H]2C(=O)NO)cc1	20	–	0.7	–
O=C(NO)C1Cc2ccccc2CN1S(=O)(=O)c1ccc(-c2ccon2)s1 (stereo not drawn)	50	8	0.8	–
O=C(Nc1ccc(S(=O)(=O)N2Cc3ccccc3CC2C(=O)NO)cc1)OCc1ccccc1 (stereo not drawn)	400	800	–	–
COc1ccc(S(=O)(=O)Oc2ccc3c(c2)CN(S(=O)(=O)c2ccc(OC)cc2)C(C(=O)NO)C3)cc1 (stereo not drawn)	30	8	0.57	–
O=C(NO)C1Cc2ccccc2CN1S(=O)(=O)c1ccc(Oc2ccccc2)cc1 (stereo not drawn)	20	2	1	–
N#Cc1ccc(Oc2ccc(S(=O)(=O)N3Cc4ccccc4CC3C(=O)O)cc2)cc1 (stereo not drawn)	1000	10	–	–
CCCCOc1ccc(S(=O)(=O)N2Cc3ccccc3CC2C(=O)NO)cc1 (stereo not drawn)	30	2	1.18	–
O=C(NO)C1Cc2ccccc2CN1S(=O)(=O)CCc1ccncc1 (stereo not drawn)	900	30	1.48	–
COc1ccc(OC(=O)Nc2cccc(S(=O)(=O)N3Cc4ccccc4CC3C(=O)NO)c2)cc1 (stereo not drawn)	3000	200	1.18	–
Nc1ccc2c(c1)CN(S(=O)(=O)c1ccc(-c3ccc(F)cc3)cc1)C(C(=O)NO)C2 (stereo not drawn)	20	2	1	–
COC(=O)c1csc(S(=O)(=O)N2Cc3ccccc3CC2C(=O)NO)c1OC (stereo not drawn)	700	80	0.94	–
COc1ccc(S(=O)(=O)N2Cc3cc(NC(=O)[C@H](C)NC(=O)OC(C)(C)C)ccc3CC2C(=O)NO)cc1 (stereo partly drawn)	20	2	1	–
